Measurements as given in paper PMC9343605, “Structural insights into ligand recognition and selectivity of somatostatin receptors” (Cell Research, 2022).
Each block holds one molecule with its values, some of them ahead of it. Positions of bridges follow the written chain, without caps; N, C: chain ends. Residues, ends and D or L forms follow the SMILES beside them.

Key:
[1] = system: SSTR1–5; settings: cited from earlier work
Text: Somatostatin (SST), an inhibitory hormone that distributes widely in both human central nervous system and periphery tissues negatively regulates multiple hormone releases (growth hormone, glucagon, insulin, gastrin and cholecystokinin) and cell proliferation through SST receptors (SSTRs).[1]–[4] There are five types of SSTRs, namely SSTR1–SSTR5, which are divided into two subfamilies: SRIF1 (SSTR2, SSTR3, SSTR5) and SRIF2 (SSTR1, SSTR4) based on phylogenetic, sequence homology and ligand binding profiles.[5] Two bioactive SST peptides, SST-14 and its N-terminally extended form SST-28, have be ...

[2] = biological target: T1, SSTR4 (Homo sapiens, UniProt P31391, Q279A); experiment: cAMP accumulation assay (agonist-induced inhibition of forskolin-stimulated cAMP), SSTR4, HEK293F; type: cell-based; set-up: expressed in transfected cells; host or cells: HEK293F; settings: SSTR4 mutant Q279^6.55A, mean ± SEM;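 also: transiently transfected cells incubated 40 min at room temperature with 4 µM forskolin and graded ligand, cAMP read by LANCE Ultra TR-FRET kit, values normalized to WT receptor per ligand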
Description: (§1) HEK293F cells were transiently transfected with WT or mutant SSTR2/SSTR4 using transfection reagent (PEI MAX 2000, Polysciences) and incubated at 37 °C in 5% CO2. Forty-eight hours after transfection, cells were centrifuged and resuspended in stimulation buffer (Hanks’ balanced salt solution (HBSS) supplemented with 5 mM HEPES, 0.5 mM IBMX and 0.1% (w/v) bovine serum albumin (BSA), pH 7.4) to a density of 200,000 cells/mL and added to 384-well white plates (PerkinElmer, 1000 cells/well). cAMP accumulation was measured by a LANCE Ultra cAMP kit (PerkinElmer) according to the manufacturer’s instructions. In brief, transfected cells were incubated for 40 min in stimulation buffer with 2.5 μL forskolin (SSTR2: 2 μM; SSTR4: 4 μM) and gradient concentration of ligand at RT. The reactions were stopped by addition of lysis buffer containing 5 μL Eu-cAMP tracer and 5 μL ULight-anti-cAMP. Plates were then incubated for 60 min at RT and time-resolved FRET signals were measured at 620 nm and 665 nm by an EnVision multilabel plate reader (PerkinElmer). Data were analyzed in GraphPad PRISM 8 and all values were normalized to the WT for each ligand. All outcomes were repeated at least three times.
(§2) aMutants represent that mutations were introduced separately into the WT receptors and
(§3) transiently expressed in HEK 293F cells.
(§4) bThe EC50 ratio was shown as EC50(mutant)/EC50(WT), indicating the shift between the WT
(§5) and mutant curves, reflecting the effect of the mutations on receptor signaling.
(§6) cData are shown as mean ± S.E.M. from at least three independent experiments
(§7) performed in technical triplicate. One-way ANOVA was performed followed by
(§8) Dunnett’s post-test and compared with WT. The P value was defined as: *P<0.05;
(§9) d The span is defined as the window between the maximal agonists response (Emax) and
(§10) e Sample size; the number of independent experiments performed in technical triplicate.
(§11) f Receptor expression level of HEK 293F cells was determined independently by flow
(§12) cytometry with anti-FLAG antibody and shown as per cent compared to the WT.

[3] = biological target: T2, SSTR4 (Homo sapiens, UniProt P31391, T215A); experiment: as above; type: cell-based; set-up: expressed in transfected cells; host or cells: HEK293F; settings: SSTR4 mutant T215^5.42A, mean ± SEM
Description: as §1, §2, §3, §4, §5, §6, §7, §8, §9, §10, §11, §12

[4] = biological target: T3, SSTR4 (Homo sapiens, UniProt P31391, F275A); experiment: as above; type: cell-based; set-up: expressed in transfected cells; host or cells: HEK293F; settings: SSTR4 mutant F275^6.51A, mean ± SEM
Description: as §1, §2, §3, §4, §5, §6, §7, §8, §9, §10, §11, §12

[5] = biological target: T4, SSTR4 (Homo sapiens, UniProt P31391); experiment: as above; type: cell-based; set-up: expressed in transfected cells; host or cells: HEK293F; settings: HEK293F, WT SSTR4, mean ± SEM
Description: as §1, §2, §3, §4, §5, §6, §7, §8, §9, §10, §11, §12

[6] = biological target: T5, SSTR4 (Homo sapiens, UniProt P31391, N199A); experiment: as above; type: cell-based; set-up: expressed in transfected cells; host or cells: HEK293F; settings: SSTR4 mutant N199^ECL2A, mean ± SEM
Description: as §1, §2, §3, §4, §5, §6, §7, §8, §9, §10, §11, §12

[7] = biological target: T6, SSTR4 (Homo sapiens, UniProt P31391, M130A); experiment: as above; type: cell-based; set-up: expressed in transfected cells; host or cells: HEK293F; settings: SSTR4 mutant M130^3.36A, mean ± SEM
Description: as §1, §2, §3, §4, §5, §6, §7, §8, §9, §10, §11, §12

[8] = biological target: T7, SSTR4 (Homo sapiens, UniProt P31391, N293A); experiment: Whole cell binding assay, SSTR4, competition with 125I-Tyr11-SST14, CHO-K1; settings: SSTR4 mutant N293^7.35A, mean ± SEM
T7 construct: expressed in transfected cells; host or cells: HEK293F
Description: (§13) For SSTR2 and SSTR4, CHO-K1 cells were cultured in F12 medium with 10% FBS and seeded at a density of 30,000 cells/well in Isoplate-96 plates (PerkinElmer). Twenty-four hours after transfection with the WT or mutant SSTR2/SSTR4, CHO-K1 cells were washed twice and incubated with blocking buffer (F12 supplemented with 25 mM HEPES and 0.1% (w/v) BSA, pH 7.4) for 2 h at 37 °C. […] Following incubation, cells were washed three times with ice-cold PBS and lysed by 50 μL lysis buffer (PBS supplemented with 20 mM Tris-HCl, 1% Triton X-100, pH 7.4). The radioactivity was subsequently counted (counts/min, CPM) in a scintillation counter (MicroBeta[2] Plate Counter, PerkinElmer) using a scintillation cocktail (OptiPhaseSuperMix, PerkinElmer). Data were analyzed by nonlinear regression using GraphPad PRISM 8.
(§14) aMutants represent that all mutations were introduced separately into the WT receptors
and expressed in CHO K1 cells.
(§15) bThe IC50 ratio was shown as IC50(mutant)/IC50(WT), indicating the shift between the WT
(§16) and mutant curves, reflecting the effect of the mutations on ligand binding.
(§17) cData are shown as mean ± S.E.M. form at least three independent experiments
as §7
(§18) Dunnett’s post-test and compared with WT.
as §9, §10

[9] = biological target: SSTR4 (Homo sapiens, UniProt P31391, S208A); experiment: as above; settings: SSTR4 mutant S208^5.35A, mean ± SEM
Description: as §13, §14
and expressed in CHO K1 cells.
as §15, §16, §17, §7, §18, §9, §10

[10] = biological target: T1, SSTR4; experiment: as above; set-up: expressed in transfected cells; settings: SSTR4 mutant Q279^6.55A, mean ± SEM
Description: as §13, §14
and expressed in CHO K1 cells.
as §15, §16, §17, §7, §18, §9, §10

[11] = biological target: T2, SSTR4; experiment: as above; set-up: expressed in transfected cells; settings: SSTR4 mutant T215^5.42A, mean ± SEM
Description: as §13, §14
and expressed in CHO K1 cells.
as §15, §16, §17, §7, §18, §9, §10

[12] = biological target: T3, SSTR4; experiment: as above; set-up: expressed in transfected cells; settings: CHO-K1; SSTR4 mutant F275^6.51A; mean ± SEM; read-out: Span
Description: as §13, §14
and expressed in CHO K1 cells.
as §15, §16, §17, §7, §18, §9, §10

[13] = biological target: T4, SSTR4; experiment: as above; set-up: expressed in transfected cells; settings: WT SSTR4, mean ± SEM
Description: as §13, §14
and expressed in CHO K1 cells.
as §15, §16, §17, §7, §18, §9, §10

[14] = biological target: T5, SSTR4; experiment: as above; set-up: expressed in transfected cells; settings: CHO-K1; SSTR4 mutant N199^ECL2A; mean ± SEM; read-out: Span
Description: as §13, §14
and expressed in CHO K1 cells.
as §15, §16, §17, §7, §18, §9, §10

[15] = biological target: SSTR4 (Homo sapiens, UniProt P31391, D126A); experiment: as above; set-up: expressed in transfected cells; settings: CHO-K1; SSTR4 mutant D126^3.32A; mean ± SEM; read-out: Span
Description: as §13, §14
and expressed in CHO K1 cells.
as §15, §16, §17, §7, §18, §9, §10

[16] = biological target: SSTR4 (Homo sapiens, UniProt P31391, Y301A); experiment: as above; set-up: expressed in transfected cells; settings: CHO-K1; SSTR4 mutant Y301^7.43A; mean ± SEM; read-out: Span
Description: as §13, §14
and expressed in CHO K1 cells.
as §15, §16, §17, §7, §18, §9, §10

[17] = biological target: T6, SSTR4; experiment: as above; set-up: expressed in transfected cells; settings: CHO-K1; SSTR4 mutant M130^3.36A; mean ± SEM; read-out: Span
Description: as §13, §14
and expressed in CHO K1 cells.
as §15, §16, §17, §7, §18, §9, §10

[18] = biological target: SSTR4 (Homo sapiens, UniProt P31391, R110A); experiment: cAMP accumulation assay (agonist-induced inhibition of forskolin-stimulated cAMP), SSTR4, HEK293F; type: cell-based; settings: SSTR4 mutant R110^ECL1A, mean ± SEM;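 also: transiently transfected cells incubated 40 min at room temperature with 4 µM forskolin and graded ligand, cAMP read by LANCE Ultra TR-FRET kit, values normalized to WT receptor per ligand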
Description: as §1, §2, §3, §4, §5, §6, §7, §8, §9, §10, §11, §12

[19] = biological target: T7, SSTR4; experiment: as above; type: cell-based; settings: SSTR4 mutant N293^7.35A, mean ± SEM
Description: as §1, §2, §3, §4, §5, §6, §7, §8, §9, §10, §11, §12

[20] = biological target: SSTR4 (Homo sapiens, UniProt P31391, N293F); experiment: as above; type: cell-based; settings: HEK293F; SSTR4 mutant N293^7.35F; mean ± SEM; read-out: Span
Description: as §1, §2, §3, §4, §5, §6, §7, §8, §9, §10, §11, §12

[21] = biological target: SSTR4 (Homo sapiens, UniProt P31391, S208W); experiment: as above; type: cell-based; settings: SSTR4 mutant S208^5.35W, mean ± SEM
Description: as §1, §2, §3, §4, §5, §6, §7, §8, §9, §10, §11, §12

[22] = biological target: T8, SSTR4 (Homo sapiens, UniProt P31391, F211A); experiment: as above; type: cell-based; settings: SSTR4 mutant F211^5.38A, mean ± SEM
T8 construct: expressed in transfected cells; host or cells: HEK293F
Description: as §1, §2, §3, §4, §5, §6, §7, §8, §9, §10, §11, §12

[23] = biological target: T9, SSTR4 (Homo sapiens, UniProt P31391, N282A); experiment: as above; type: cell-based; settings: SSTR4 mutant N282^6.58A, mean ± SEM
T9 construct: expressed in transfected cells; host or cells: HEK293F
Description: as §1, §2, §3, §4, §5, §6, §7, §8, §9, §10, §11, §12

[24] = biological target: T10, SSTR4 (Homo sapiens, UniProt P31391, L297A); experiment: as above; type: cell-based; settings: SSTR4 mutant L297^7.39A, mean ± SEM
T10 construct: expressed in transfected cells; host or cells: HEK293F
Description: as §1, §2, §3, §4, §5, §6, §7, §8, §9, §10, §11, §12

[25] = cited from earlier work
Text: Along with increased knowledge of the pharmacological effects of these receptors, medical application of SST and its analogs has expanded. A considerable amount of effort has been made to develop new therapeutics for oncology of SSTRs. […] It was found recently that radiolabeled SSTR antagonists produced superi ...

[26] = at least three independent experiments

T2 sequence (P31391 whole entry T215A): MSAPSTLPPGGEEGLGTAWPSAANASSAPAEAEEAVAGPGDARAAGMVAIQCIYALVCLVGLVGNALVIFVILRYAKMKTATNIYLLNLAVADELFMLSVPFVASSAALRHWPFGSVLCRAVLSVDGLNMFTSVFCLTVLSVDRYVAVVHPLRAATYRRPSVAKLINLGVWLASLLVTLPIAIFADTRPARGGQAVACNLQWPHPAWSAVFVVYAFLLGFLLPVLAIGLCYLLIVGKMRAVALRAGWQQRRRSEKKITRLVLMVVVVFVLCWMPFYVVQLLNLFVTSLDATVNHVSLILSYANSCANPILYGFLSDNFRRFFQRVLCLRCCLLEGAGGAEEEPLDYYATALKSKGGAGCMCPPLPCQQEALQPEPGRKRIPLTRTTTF
T3 sequence (P31391 whole entry F275A): as the sequence (P31391 whole entry T215A) above, with A215T, F275A counted along it
T6 sequence (P31391 whole entry M130A): as the sequence (P31391 whole entry T215A) above, with M130A, A215T counted along it
T1 sequence (P31391 whole entry Q279A): as the sequence (P31391 whole entry T215A) above, with A215T, Q279A counted along it
T7 sequence (P31391 whole entry N293A): as the sequence (P31391 whole entry T215A) above, with A215T, N293A counted along it
T5 sequence (P31391 whole entry N199A): as the sequence (P31391 whole entry T215A) above, with N199A, A215T counted along it
T4 sequence (P31391 whole entry): as the sequence (P31391 whole entry T215A) above, with A215T counted along it
T10 sequence (P31391 whole entry L297A): as the sequence (P31391 whole entry T215A) above, with A215T, L297A counted along it
SSTR4 (Homo sapiens, UniProt P31391, S208A), sequence (P31391 whole entry S208A): as the sequence (P31391 whole entry T215A) above, with S208A, A215T counted along it
SSTR4 (Homo sapiens, UniProt P31391, R110A), sequence (P31391 whole entry R110A): as the sequence (P31391 whole entry T215A) above, with R110A, A215T counted along it
T9 sequence (P31391 whole entry N282A): as the sequence (P31391 whole entry T215A) above, with A215T, N282A counted along it
T8 sequence (P31391 whole entry F211A): as the sequence (P31391 whole entry T215A) above, with F211A, A215T counted along it
SSTR4 (Homo sapiens, UniProt P31391, S208W), sequence (P31391 whole entry S208W): as the sequence (P31391 whole entry T215A) above, with S208W, A215T counted along it
SSTR4 (Homo sapiens, UniProt P31391, N293F), sequence (P31391 whole entry N293F): as the sequence (P31391 whole entry T215A) above, with A215T, N293F counted along it
SSTR4 (Homo sapiens, UniProt P31391, Y301A), sequence (P31391 whole entry Y301A): as the sequence (P31391 whole entry T215A) above, with A215T, Y301A counted along it
SSTR4 (Homo sapiens, UniProt P31391, D126A), sequence (P31391 whole entry D126A): as the sequence (P31391 whole entry T215A) above, with D126A, A215T counted along it

Molecule: SST-28: N-terminally extended form of bioactive SST peptide
affinity for SSTR1–5 [1]: high and equal affinity for SSTR1–5

Emax ([2]; HEK293F, read-out: Span): 77 ± 5% | EC50 [2]: 5.01 nM | Emax ([3]; HEK293F, read-out: Span): 79 ± 6% | EC50 [3]: 0.479 nM | Emax ([4]; HEK293F, read-out: Span): 20 ± 5% | EC50 [4]: 676 nM | Emax ([5]; window between Emax and vehicle, read-out: Span): 100 ± 3% | EC50 [5, 26]: 1.26 nM | Emax ([6]; HEK293F, read-out: Span): 93 ± 6% | EC50 [6]: 15.1 nM | Emax ([7]; HEK293F, read-out: Span): 72 ± 4% | EC50 [7]: 97.7 nM | Emax ([8]; CHO-K1, read-out: Span): 132 ± 12% | IC50 [8]: 1.29 nM | Emax ([9]; CHO-K1, read-out: Span): 152 ± 11% | IC50 [9]: 0.0708 nM | Emax ([10]; CHO-K1, read-out: Span): 45 ± 12% | IC50 [10]: 1.35 nM | Emax ([11]; CHO-K1, read-out: Span): 96 ± 15% | IC50 [11]: 0.0676 nM | Emax [12]: 23 ± 5% | Emax ([13]; CHO-K1, read-out: Span): 100 ± 7% | IC50 [13, 26]: 3.8 nM | Emax [14]: 26 ± 7% | Emax [15]: 23 ± 8% | Emax [16]: 30 ± 16% | Emax [17]: 26 ± 5% | Emax ([18]; HEK293F, read-out: Span): 100 ± 6% | EC50 [18]: 1.91 nM | Emax ([19]; HEK293F, read-out: Span): 106 ± 7% | EC50 [19]: 3.47 nM | Emax [20]: 16 ± 7% | Emax ([21]; HEK293F, read-out: Span): 58 ± 6% | EC50 [21]: 1.12 nM | Emax ([22]; HEK293F, read-out: Span): 65 ± 5% | EC50 [22]: 145 nM | Emax ([23]; HEK293F, read-out: Span): 48 ± 2% | EC50 [23]: 2.34 nM | Emax ([24]; HEK293F, read-out: Span): 99 ± 8% | EC50 [24]: 102 nM
Molecule: C[C@@H]1NC(=O)[C@H](Cc2ccccc2)NC(=O)[C@@H](N)CSSC[C@@H](C(=O)O)NC(=O)[C@H](Cc2ccccc2)NC(=O)[C@H]([C@@H](C)O)NC(=O)[C@H](CCCCN)NC(=O)[C@H](Cc2c[nH]c3ccccc23)NC1=O [Peptide3] (H-CFAWKTFC-OH; disulfide 1-8)

Molecule: SST: Somatostatin, an inhibitory hormone
half-life [25]: less than 3 min
